In US20070154567A1, “Use of mercury to treat cancer” (priority 2006, published 2007):

System: apocrine gland adenocarcinoma, metastatic to lymph node
Assay: Oral inorganic mercury (II) treatment of a pet Labrador Retriever after surgical removal of the lump: blood data and clinical follow-up
Type: in vivo, dog
Parameters: MCV / MCH / MCHC / Neutrophils, absolute / Bands / Lymphocytes, absolute / Monocytes, absolute / Eosinophils, absolute / Basophils, absolute: unit not given here
Procedure: A 7 years old, 106 lbs male Labrador Retriever, was diagnosed with apocrine gland adenocarcinoma, metastatic to lymph node. The lump on the neck was surgically removed and biopsy analysis was performed.
The owner chose not to pursue chemo- and radiation therapies. Instead, the dog undertook a full course of inorganic mercury (II) treatment. The treatment consisted of total of 150 days including three 30-day treatment courses and two 30-day interval periods between courses. The formulation contained 1 mM mercury acetate in 20 mM sodium acetate buffer, pH 4.5, with 100 mM sucrose and 150 mM sodium chloride additives. The formulation was introduced orally to the pet three times a day 1 hour before taking food at 0.5 micromole Hg^2+/kg/day.
The blood data at Day 175 were normal (see Table 1).

With `CC(=O)[O-].CC(=O)[O-].[Hg+2]` [inorganic mercury (II), mercury acetate] the “health of the dog” value (13 months after completing the treatment) was “continues to be healthy”, the “ALT (SGPT)” value (Day 175) was 52 U/L and the “AST (SGOT)” value (Day 175) was 29 U/L. For the same compound, the Albumin (Day 175) was 3.9 g/dL, the “Albumin/Globulin Ratio” value (Day 175) was 1.1 and the “Alkaline Phosphatase (ALP)” value (Day 175) was 94 U/L. The “BUN/Creatinine Ratio” value (Day 175) was 17, the Bands (Day 175) was 0 and the “Basophils, absolute” value (Day 175) was 0. For the same compound, the CPK (Day 175) was 267 U/L, the Calcium (Day 175) was 10.3 mg/dL and the Chloride (Day 175) was 115 mE/L. The Cholesterol (Day 175) was 322 mg/dL, the Creatinine (Day 175) was 1.2 mg/dL and the “Eosinophils, (%)” value (Day 175) was 5%. The “Eosinophils, absolute” value (Day 175) was 445, the Globulin (Day 175) was 3.4 g/dL and the Glucose (Day 175) was 105 mg/dL. For the same compound, the Hematocrit (Day 175) was 53.7%, the Hemoglobin (Day 175) was 17.7 g/dL and the “Lymphocytes, (%)” value (Day 175) was 31%. For the same compound, the “Lymphocytes, absolute” value (Day 175) was 2759, the MCH (Day 175) was 21.9 and the MCHC (Day 175) was 33.0. The MCV (Day 175) was 66, the “Monocytes, (%)” value (Day 175) was 4% and the “Monocytes, absolute” value (Day 175) was 356. The “Neutrophils, (%)” value (Day 175) was 60%, the “Neutrophils, absolute” value (Day 175) was 5340 and the Phosphorus (Day 175) was 4.6 mg/dL. For the same compound, the Platelet count (Day 175) was 294 10^3/microl, the Potassium (Day 175) was 5.1 mE/L and the RBC (Day 175) was 8.1 10^6/microl. The Sodium (Day 175) was 151 mE/L, the “Total Billirubin” value (Day 175) was 0.2 mg/dL and the “Total Protein” value (Day 175) was 7.3 g/dL. For the same compound, the “Urea Nitrogen” value (Day 175) was 20 mg/dL, the WBC (Day 175) was 8.9 10^3/microl and the blood data (Day 175) was “normal”. The “metastases on chest x-ray” value (Day 356, owner's notes) was “no metastases” and the “metastasis or new mass growth in abdominal, lymph nodes or chest” value (post treatment evaluation by oncologist and veterinarian, X-rays and ultrasound) was “no evidence of metastasis or new mass growth”.
